{"source": "patent EP1181935A2", "about": "“Agent for treating mental disorders associated with cerebrovascular disorders” (SUMITOMO PHARMACEUTICALS COMPANY, LIMITED, priority 1995, dated 1996)", "system": "patients with cerebral infarction or hemorrhage accompanied by various mental disorders", "experiment": "Clinical trial of SM-9018 for mental disorders associated with cerebrovascular disorders", "format": "in vivo", "settings": "8 weeks", "protocol": "Examination 1 Clinical trial of SM-9018 for mental disorders associated with cerebrovascular disorders.\nSM-9018 was administered to patients with cerebral infarction or hemorrhage accompanied by various mental disorders described above to examine whether the mental disorders will be improved or not.\nOne mg/dosage of SM-9018 was orally administered once (Step I), twice (Step II) or 3 times a day (Step III) for up to 2 weeks after the administration was started and, when the treatment was effective, administration thereof was continued.\n[2] Administration periods: 8 weeks\nImprovement of the mental disorders was evaluated by categorizing into 4 grades: i.e. 1) \"excellent\", 2) \"moderate\", 3) \"slight\", or 4) \"unchanged\" or other. Among the results obtained, \"the number of patients categorized to 1) + 2) divided by the number of patients tested\" for each symptom is summarized in the following Tables 1 to 3.", "key": {"[1]": {"settings": "Step I: 1 mg orally once a day (increased to 1 mg x 2 times/day if no effect)"}, "[2]": {"settings": "Step I: 1 mg orally once a day (increased to 1 mg x 2 times/day if no effect), 35 patients examined"}, "[3]": {"settings": "Step II: 1 mg orally twice a day (increased to 2 mg x 2 times/day if no effect)"}, "[4]": {"settings": "Step II: 1 mg orally twice a day (increased to 2 mg x 2 times/day if no effect), 28 patients examined"}, "[5]": {"settings": "Step III: 1 mg orally 3 times a day (increased to 2 mg x 3 times/day if no effect)"}, "[6]": {"settings": "Step III: 1 mg orally 3 times a day (increased to 2 mg x 3 times/day if no effect), 20 patients examined"}}, "note": "Counter-ions that a name gives are not always drawn.", "data": [{"smiles": "O=C1[C@H]2CCCC[C@H]2C(=O)N1CCCCN1CCN(c2nsc3ccccc23)CC1", "note": "[SM-9018, N-[4-[4-(1,2-benzisothiazol-3-yl)-1-piperazinyl]butyl]-1,2-cis-cyclohexandicarboxyimide hydrochloride]", "values": [{"measurement": "Aggressive behavior: number of patients categorized to 1) + 2) divided by the number of patients tested", "setting": "[1]", "result": "2/7"}, {"measurement": "Anxiety: number of patients categorized to 1) + 2) divided by the number of patients tested", "setting": "[1]", "result": "3/22"}, {"measurement": "Bad humor: number of patients categorized to 1) + 2) divided by the number of patients tested", "setting": "[1]", "result": "4/18"}, {"measurement": "Delirium: number of patients categorized to 1) + 2) divided by the number of patients tested", "setting": "[1]", "result": "1/4"}, {"measurement": "Depressive mood: number of patients categorized to 1) + 2) divided by the number of patients tested", "setting": "[1]", "result": "4/25"}, {"measurement": "Emotional incontinence: number of patients categorized to 1) + 2) divided by the number of patients tested", "setting": "[1]", "result": "2/13"}, {"measurement": "Emotional tension: number of patients categorized to 1) + 2) divided by the number of patients tested", "setting": "[1]", "result": "2/18"}, {"measurement": "Fugue: number of patients categorized to 1) + 2) divided by the number of patients tested", "setting": "[1]", "result": "1/6"}, {"measurement": "Irritability: number of patients categorized to 1) + 2) divided by the number of patients tested", "setting": "[1]", "result": "4/25"}, {"measurement": "Mental excitement: number of patients categorized to 1) + 2) divided by the number of patients tested", "setting": "[1]", "result": "2/14"}, {"measurement": "Reduced expression of desires: number of patients categorized to 1) + 2) divided by the number of patients tested", "setting": "[1]", "result": "3/29"}, {"measurement": "Reduced initiative in activities: number of patients categorized to 1) + 2) divided by the number of patients tested", "setting": "[1]", "result": "3/30"}, {"measurement": "Reduced interest in housework, amusement, pastime and the like: number of patients categorized to 1) + 2) divided by the number of patients tested", "setting": "[1]", "result": "4/31"}, {"measurement": "Reduced positiveness to an influence: number of patients categorized to 1) + 2) divided by the number of patients tested", "setting": "[1]", "result": "5/30"}, {"measurement": "Total emotional disorders: number of patients categorized to 1) + 2) divided by the number of patients tested", "setting": "[1]", "result": "8/33"}, {"measurement": "Total loss of spontaneity: number of patients categorized to 1) + 2) divided by the number of patients tested", "setting": "[1]", "result": "4/32"}, {"measurement": "Total problem behavior: number of patients categorized to 1) + 2) divided by the number of patients tested", "setting": "[1]", "result": "2/18"}, {"measurement": "patients with some improvement of mental disorders, including those judged as \"slight\" (global evaluation)", "setting": "[1]", "result": "about 77%"}, {"measurement": "Final global improvement rating: Excellent (number of patients)", "setting": "[2]", "result": 2}, {"measurement": "Final global improvement rating: Moderate (number of patients)", "setting": "[2]", "result": 5}, {"measurement": "Final global improvement rating: Slight (number of patients)", "setting": "[2]", "result": 20}, {"measurement": "Aggressive behavior: number of patients categorized to 1) + 2) divided by the number of patients tested", "setting": "[3]", "result": "3/4"}, {"measurement": "Anxiety: number of patients categorized to 1) + 2) divided by the number of patients tested", "setting": "[3]", "result": "4/23"}, {"measurement": "Bad humor: number of patients categorized to 1) + 2) divided by the number of patients tested", "setting": "[3]", "result": "9/21"}, {"measurement": "Delirium: number of patients categorized to 1) + 2) divided by the number of patients tested", "setting": "[3]", "result": "2/5"}, {"measurement": "Depressive mood: number of patients categorized to 1) + 2) divided by the number of patients tested", "setting": "[3]", "result": "8/23"}, {"measurement": "Emotional incontinence: number of patients categorized to 1) + 2) divided by the number of patients tested", "setting": "[3]", "result": "3/13"}, {"measurement": "Emotional tension: number of patients categorized to 1) + 2) divided by the number of patients tested", "setting": "[3]", "result": "3/18"}, {"measurement": "Fugue: number of patients categorized to 1) + 2) divided by the number of patients tested", "setting": "[3]", "result": "1/3"}, {"measurement": "Irritability: number of patients categorized to 1) + 2) divided by the number of patients tested", "setting": "[3]", "result": "5/19"}, {"measurement": "Mental excitement: number of patients categorized to 1) + 2) divided by the number of patients tested", "setting": "[3]", "result": "4/10"}, {"measurement": "Reduced expression of desires: number of patients categorized to 1) + 2) divided by the number of patients tested", "setting": "[3]", "result": "5/23"}, {"measurement": "Reduced initiative in activities: number of patients categorized to 1) + 2) divided by the number of patients tested", "setting": "[3]", "result": "5/26"}, {"measurement": "Reduced interest in housework, amusement, pastime and the like: number of patients categorized to 1) + 2) divided by the number of patients tested", "setting": "[3]", "result": "6/27"}, {"measurement": "Reduced positiveness to an influence: number of patients categorized to 1) + 2) divided by the number of patients tested", "setting": "[3]", "result": "6/23"}, {"measurement": "Total emotional disorders: number of patients categorized to 1) + 2) divided by the number of patients tested", "setting": "[3]", "result": "11/28"}, {"measurement": "Total loss of spontaneity: number of patients categorized to 1) + 2) divided by the number of patients tested", "setting": "[3]", "result": "8/27"}, {"measurement": "Total problem behavior: number of patients categorized to 1) + 2) divided by the number of patients tested", "setting": "[3]", "result": "5/10"}, {"measurement": "patients with some improvement of mental disorders, including those judged as \"slight\" (global evaluation)", "setting": "[3]", "result": "about 75%"}, {"measurement": "Final global improvement rating: Excellent (number of patients)", "setting": "[4]", "result": 3}, {"measurement": "Final global improvement rating: Moderate (number of patients)", "setting": "[4]", "result": 10}, {"measurement": "Final global improvement rating: Slight (number of patients)", "setting": "[4]", "result": 8}, {"measurement": "Aggressive behavior: number of patients categorized to 1) + 2) divided by the number of patients tested", "setting": "[5]", "result": "2/5"}, {"measurement": "Anxiety: number of patients categorized to 1) + 2) divided by the number of patients tested", "setting": "[5]", "result": "6/19"}, {"measurement": "Bad humor: number of patients categorized to 1) + 2) divided by the number of patients tested", "setting": "[5]", "result": "6/16"}, {"measurement": "Delirium: number of patients categorized to 1) + 2) divided by the number of patients tested", "setting": "[5]", "result": "1/4"}, {"measurement": "Depressive mood: number of patients categorized to 1) + 2) divided by the number of patients tested", "setting": "[5]", "result": "6/18"}, {"measurement": "Emotional incontinence: number of patients categorized to 1) + 2) divided by the number of patients tested", "setting": "[5]", "result": "2/10"}, {"measurement": "Emotional tension: number of patients categorized to 1) + 2) divided by the number of patients tested", "setting": "[5]", "result": "5/15"}, {"measurement": "Fugue: number of patients categorized to 1) + 2) divided by the number of patients tested", "setting": "[5]", "result": "0/3"}, {"measurement": "Irritability: number of patients categorized to 1) + 2) divided by the number of patients tested", "setting": "[5]", "result": "5/16"}, {"measurement": "Mental excitement: number of patients categorized to 1) + 2) divided by the number of patients tested", "setting": "[5]", "result": "3/8"}, {"measurement": "Reduced expression of desires: number of patients categorized to 1) + 2) divided by the number of patients tested", "setting": "[5]", "result": "3/16"}, {"measurement": "Reduced initiative in activities: number of patients categorized to 1) + 2) divided by the number of patients tested", "setting": "[5]", "result": "6/17"}, {"measurement": "Reduced interest in housework, amusement, pastime and the like: number of patients categorized to 1) + 2) divided by the number of patients tested", "setting": "[5]", "result": "8/16"}, {"measurement": "Reduced positiveness to an influence: number of patients categorized to 1) + 2) divided by the number of patients tested", "setting": "[5]", "result": "3/17"}, {"measurement": "Total emotional disorders: number of patients categorized to 1) + 2) divided by the number of patients tested", "setting": "[5]", "result": "10/20"}, {"measurement": "Total loss of spontaneity: number of patients categorized to 1) + 2) divided by the number of patients tested", "setting": "[5]", "result": "9/18"}, {"measurement": "Total problem behavior: number of patients categorized to 1) + 2) divided by the number of patients tested", "setting": "[5]", "result": "3/10"}, {"measurement": "patients with some improvement of mental disorders, including those judged as \"slight\" (global evaluation)", "setting": "[5]", "result": "about 80%"}, {"measurement": "Final global improvement rating: Excellent (number of patients)", "setting": "[6]", "result": 6}, {"measurement": "Final global improvement rating: Moderate (number of patients)", "setting": "[6]", "result": 7}, {"measurement": "Final global improvement rating: Slight (number of patients)", "setting": "[6]", "result": 3}]}]}
